Reference: PMC8343220, “The selectivity of α‐adrenoceptor agonists for the human α1A, α1B, and α1D‐adrenoceptors” (Pharmacology Research & Perspectives, 2021)

How the values were obtained:
[1] = target: T1, human α1A‐adrenoceptor (Homo sapiens, UniProt P35348); assay: ^3H‐prazosin whole‐cell radioligand binding, CHO‐α1A cells; settings: for Kd: Log KD α1A, ^3H‐prazosin whole cell binding
T1 construct: expressed in transfected cells; host or cells: CHO-K1
T1 sequence (P35348 1-466): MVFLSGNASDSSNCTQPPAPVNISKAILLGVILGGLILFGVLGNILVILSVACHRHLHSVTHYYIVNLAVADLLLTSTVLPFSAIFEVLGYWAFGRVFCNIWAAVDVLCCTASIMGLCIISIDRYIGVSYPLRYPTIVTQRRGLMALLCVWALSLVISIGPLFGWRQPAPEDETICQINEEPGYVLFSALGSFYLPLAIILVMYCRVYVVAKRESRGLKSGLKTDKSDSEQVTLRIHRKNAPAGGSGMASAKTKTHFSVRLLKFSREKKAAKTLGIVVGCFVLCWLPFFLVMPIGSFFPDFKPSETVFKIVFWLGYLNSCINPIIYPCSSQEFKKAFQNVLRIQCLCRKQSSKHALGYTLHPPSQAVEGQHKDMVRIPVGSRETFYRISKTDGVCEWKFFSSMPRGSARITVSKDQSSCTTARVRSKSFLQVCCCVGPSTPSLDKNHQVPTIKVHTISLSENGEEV

[2] = target: T2, human α1D‐adrenoceptor (full length) (Homo sapiens, UniProt P25100); assay: ^3H‐prazosin whole‐cell radioligand binding, CHO‐α1D cells
T2 construct: human α1D‐adrenoceptor (full length) were used; expressed in transfected cells; host or cells: CHO-K1
T2 sequence (P25100 1-572): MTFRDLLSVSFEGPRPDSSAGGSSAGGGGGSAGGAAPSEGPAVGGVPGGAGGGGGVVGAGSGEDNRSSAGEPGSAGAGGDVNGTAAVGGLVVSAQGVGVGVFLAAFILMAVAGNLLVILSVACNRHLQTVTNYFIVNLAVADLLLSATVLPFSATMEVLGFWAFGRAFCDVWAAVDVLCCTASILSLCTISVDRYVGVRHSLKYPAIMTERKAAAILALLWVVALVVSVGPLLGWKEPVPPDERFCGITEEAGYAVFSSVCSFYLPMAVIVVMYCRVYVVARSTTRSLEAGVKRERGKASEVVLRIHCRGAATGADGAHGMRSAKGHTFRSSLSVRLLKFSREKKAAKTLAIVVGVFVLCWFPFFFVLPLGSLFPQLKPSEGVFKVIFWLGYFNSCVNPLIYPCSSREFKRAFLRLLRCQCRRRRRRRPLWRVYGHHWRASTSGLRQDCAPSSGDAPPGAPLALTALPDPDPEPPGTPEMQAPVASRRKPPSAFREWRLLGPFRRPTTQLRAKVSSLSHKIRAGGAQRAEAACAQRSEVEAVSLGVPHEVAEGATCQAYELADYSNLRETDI

[3] = target: T1, human α1A‐adrenoceptor; assay: Intracellular free calcium mobilization, CHO‐α1A cells; type: cell-based; settings: for EC50: read-out: Intracellular calcium release Log EC50 (converted)
[4] = target: T2, human α1D‐adrenoceptor (full length); assay: Intracellular free calcium mobilization, CHO‐α1D cells; type: cell-based
[5] = tested on: parental CHO cell line without any transfected receptors; assay: Intracellular calcium mobilization, parent CHO cells without transfected receptors; type: cell-based, Chinese hamster; settings: Cricetulus griseus; CHO cells without transfected receptors; response at maximum concentration used (c2), as % of ionomycin (10μM) response; mean ± s.e.m.; read-out: Intracellular calcium release % ionomycin
[6] = target: T1, human α1A‐adrenoceptor; assay: ERK1/2‐phosphorylation (Surefire Alphascreen), CHO‐α1A cells; type: cell-based; settings: for EC50: read-out: ERK1/2‐phosphorylation Log EC50 (converted)
[7] = target: T2, human α1D‐adrenoceptor (full length); assay: ERK1/2‐phosphorylation (Surefire Alphascreen), CHO‐α1D cells; type: cell-based
[8] = tested on: parental CHO cell line without any transfected receptors; assay: ERK1/2‐phosphorylation, parent CHO cells without transfected receptors; type: cell-based, Chinese hamster; settings: Cricetulus griseus, CHO; read-out: ERK1/2-phosphorylation % PDBu at 100μM
[9] = target: T1, human α1A‐adrenoceptor; assay: ^3H‐cAMP accumulation, CHO‐α1A cells; type: cell-based; settings: CHO‐α1A cells; for EC50: 5 h, read-out: cAMP accumulation Log EC50 (converted); for cAMP accumulation % forskolin: % of 10 µM forskolin response
[10] = target: T2, human α1D‐adrenoceptor (full length); assay: ^3H‐cAMP accumulation, CHO‐α1D cells; type: cell-based; settings: cAMP accumulation without forskolin
[11] = target: T1, human α1A‐adrenoceptor; assay: ^3H‐cAMP accumulation in the presence of 10 μM forskolin, CHO‐α1A cells; type: cell-based; settings: CHO‐α1A cells; for EC50: 10 μM forskolin, read-out: cAMP accumulation (in presence of forskolin) Log EC50 (converted)
[12] = target: T2, human α1D‐adrenoceptor (full length); assay: ^3H‐cAMP accumulation in the presence of 10 μM forskolin, CHO‐α1D cells; type: cell-based; settings: CHO‐α1D cells; for cAMP (in presence of forskolin) Log EC50: log values given negative
[13] = tested on: parental CHO cell line without any transfected receptors; assay: Forskolin‐stimulated cAMP accumulation, parent CHO cells without transfected receptors; type: cell-based, Chinese hamster; settings: CHO cells without transfected receptors
[14] = target: T3, human α1B‐adrenoceptor (Homo sapiens, UniProt P35368); assay: ^3H‐prazosin whole‐cell radioligand binding, CHO‐α1B cells
T3 construct: expressed in transfected cells; host or cells: CHO-K1
T3 sequence (P35368 1-520): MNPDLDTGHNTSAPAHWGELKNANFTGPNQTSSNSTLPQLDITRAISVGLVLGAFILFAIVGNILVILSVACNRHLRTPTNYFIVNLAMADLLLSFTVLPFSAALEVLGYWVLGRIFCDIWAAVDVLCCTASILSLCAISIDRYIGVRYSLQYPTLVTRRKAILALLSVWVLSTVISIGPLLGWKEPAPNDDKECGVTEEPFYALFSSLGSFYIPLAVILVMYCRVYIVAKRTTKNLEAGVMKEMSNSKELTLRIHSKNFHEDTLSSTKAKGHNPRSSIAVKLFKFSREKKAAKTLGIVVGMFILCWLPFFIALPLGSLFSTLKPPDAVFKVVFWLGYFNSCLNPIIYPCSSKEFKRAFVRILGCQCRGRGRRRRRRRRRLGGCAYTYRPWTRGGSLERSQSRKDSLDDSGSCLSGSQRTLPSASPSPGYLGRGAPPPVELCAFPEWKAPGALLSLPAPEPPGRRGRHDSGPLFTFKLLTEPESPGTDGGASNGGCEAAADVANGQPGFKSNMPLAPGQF

[15] = target: T3, human α1B‐adrenoceptor; assay: Intracellular free calcium mobilization, CHO‐α1B cells; type: cell-based
[16] = target: T3, human α1B‐adrenoceptor; assay: ERK1/2‐phosphorylation (Surefire Alphascreen), CHO‐α1B cells; type: cell-based
[17] = target: T3, human α1B‐adrenoceptor; assay: ^3H‐cAMP accumulation, CHO‐α1B cells; type: cell-based; settings: CHO‐α1B cells
[18] = target: T3, human α1B‐adrenoceptor; assay: ^3H‐cAMP accumulation in the presence of 10 μM forskolin, CHO‐α1B cells; type: cell-based; settings: CHO‐α1B cells
[19] = fold increase of the forskolin response

## N=C(N)N/N=C/c1c(Cl)cccc1Cl [Guanabenz]
[1]; CHO‐α1A cells, given as log KD (negative), mean ± SEM
  Kd: 331 nM
[2]; 3H‐prazosin binding Log KD, CHO‐α1D cells, whole‐cell binding (from Table 1), log values given negative
  Kd: 955 nM
[2]; Log KD α1D, ^3H‐prazosin whole cell binding, CHO‐α1D cells, given as log KD (negative), mean ± SEM, 'early plateau' = specific binding not fully inhibited
  Kd: 955 nM
[3]
  Intracellular calcium release % ionomycin: 17.8 ± 3.2%
[3]; CHO‐α1A cells, given as log EC50 (negative)
  EC50: 110 nM
[4]
  Intracellular calcium release % Ionomycin at 100 µM: 20.2 ± 5.1%
[5]
  Emax: 23.5 ± 7.4%
[6]
  ERK1/2‐phosphorylation % PDBu: 68.4 ± 8.6%
[6]; CHO‐α1A cells, 2–4 min, ^a bi‐phasic: initial stimulatory part, ^b also active in parent CHO cells
  EC50: 204 nM
[7]
  ERK1/2‐phosphorylation % PDBu at 100 µM: 20.8 ± 6.6%
[8]
  Emax at 100 µM: 8.5 ± 3.1%
[9]
  EC50: 1820 nM
  cAMP accumulation % forskolin: 2.1 ± 0.3%
[10]
  cAMP Log EC50: No response
[11]
  EC50: 145 nM
[12]
  cAMP (in presence of forskolin) Log EC50: No response
[13]; in presence of forskolin
  cAMP accumulation (in presence of forskolin) Log EC50: No response

## Cc1cccc([C@H](C)c2cnc[nH]2)c1C [Dexmedetomidine]
[1]
  Affinity selectivity ratio α1A vs α1B: 6.9 fold
  Kd: 1320 nM
[14]; Log KD α1B, ^3H‐prazosin whole cell binding
  Kd: 9120 nM
[14]; Log KD, ^3H‐prazosin binding
  Kd: 9120 nM
[2]
  Affinity selectivity ratio α1A vs α1D: 1.3 fold
  Affinity selectivity ratio α1B vs α1D: 9.3 fold
[2]; 3H‐prazosin binding Log KD
  Kd: 1230 nM
[2]; Log KD α1D, ^3H‐prazosin whole cell binding
  Kd: 1230 nM
[3]
  Intracellular calcium release % ionomycin: 57.3 ± 2.8%
  Log efficacy ratio KD /EC50: 1.91
  EC50: 16.2 nM
[15]
  Intracellular calcium release % ionomycin: 43.6 ± 2.1%
  Log efficacy ratio KD /EC50: 2.29
[15]; read-out: Intracellular calcium release Log EC50 (converted)
  EC50: 46.8 nM
[4]
  Intracellular calcium release % Ionomycin at 100 µM: 13.1 ± 1.7%
[5]
  Emax: 6.3 ± 4.8%
[6]
  ERK1/2‐phosphorylation % PDBu: 81.7 ± 4.4%
  EC50: 13.8 nM
[16]
  ERK1/2‐phosphorylation % PDBu: 55.4 ± 7.4%
[16]; read-out: ERK1/2‐phosphorylation Log EC50 (converted)
  EC50: 132 nM
[7]
  ERK1/2‐phosphorylation % PDBu at 100 µM: 19.7 ± 3.3%
[8]
  Emax at 100 µM: 5.8 ± 2.2%
[9]
  EC50: 513 nM
  cAMP accumulation % forskolin: 57.6 ± 5.7%
[17]; % forskolin maximum response
  cAMP accumulation % forskolin: 3.7 ± 0.6%
[17]; read-out: cAMP accumulation Log EC50 (converted)
  EC50: 89.1 nM
[10]
  cAMP Log EC50: No response
[11]
  EC50: 85.1 nM
[11]; [19]
  cAMP accumulation (in presence of forskolin) Fold increase: 2.13 ± 0.09 fold
[18]; [19]
  cAMP accumulation (in presence of forskolin) Fold increase: 1.60 ± 0.07 fold
[18]; in presence of forskolin, read-out: cAMP accumulation (in presence of forskolin) Log EC50 (converted)
  EC50: 33.1 nM
[12]; [19]
  cAMP (in presence of forskolin) Fold increase: No response
[12]
  cAMP (in presence of forskolin) Log EC50: No response
[13]; response at 100μM only, EC50 not obtainable, % of forskolin-stimulated cAMP
  cAMP accumulation (in presence of forskolin) % forskolin-stim cAMP at 100μM: 84.4 ± 4.7%
